The values that follow come from PubChem BioAssay (NCI).

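These data come from cells grown in 96-well plates and exposed to compound for 48 hours at five concentrations. The concentration for 50% growth inhibition is given as GI50. TGI: concentration producing complete growth inhibition.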

What all share (assay): NCI anticancer screen, dose series, 48 h
Assay [1] has as its system DU-145 prostate.
Assay [2] relates to HCT-116 colon.
Assay [3] deals with IGROV1 ovarian.
For assay [4], the system named is KM12 colon.
Assay [5] concerns NCI-H23 lung.
The subject of assay [6] is OVCAR-5 ovarian.
The test system of assay [7] is RPMI-8226 leukemia.
Assay [8] relates to SK-MEL-2 melanoma.
Assay [9] has as its system HCC-2998 colon.
The test system of assay [10] is MALME-3M melanoma.
The test system of assay [11] is TK-10 renal.
Assay [12] deals with U251 CNS.

`S=C1NC2=C(COc3ccccc32)C(c2ccc(Cl)cc2)N1` (stereo unspecified): the TGI came out at 35.7 µM in [1]; 28.9 µM in [2]; 31.6 µM in assay [3]; 32.7 µM in [4]; 45.9 µM in [5]; 30.7 µM in [6]. Also, the TGI amounted to 22.4 µM in assay [7] and 29 µM in assay [8].
`CCOC(=O)c1cc(-n2nnc3ccccc32)cn1C`: the TGI in assay [1], in [9], in assay [2], in assay [3], in assay [4] and in assay [10] was over 10 µM throughout. In addition, the TGI in assay [5], in assay [6], in assay [7], in assay [8], in [11] and in [12] was over 10 µM each time.
Regarding `COc1cc(C2C3=C(COC3=O)Oc3cc4c(cc32)OCO4)ccc1O` (stereo unspecified), the TGI was over 100 µM in assay [1]; 6.34 µM in assay [9]; over 48.3 µM in assay [2]; over 100 µM in [3]; over 100 µM in assay [4]; over 100 µM in [5]. Also, the TGI in assay [6] was over 100 µM; in assay [7], over 63.2 µM; in assay [8], over 100 µM; in [11] it was over 100 µM; in [12], over 100 µM.
On to `Cc1nc(SCC(=O)Nc2ccc(Cl)cc2)c2sc(=S)n(-c3ccccc3)c2n1`, for which the TGI in assay [1], in assay [9], in [2], in [3], in assay [4] and in [10] was over 10 µM each time. For the same molecule, the TGI in assay [5], in assay [6], in assay [7], in assay [8], in assay [11] and in [12] was over 10 µM in each case.
In the case of `Cc1cc(S(=O)(=O)N2CCNNC2=O)c(S)cc1Cl`, the TGI in assay [1] was over 100 µM; in assay [9], over 100 µM; in assay [3], over 100 µM; in [4], over 100 µM; in assay [10], 46.2 µM; in [6], over 100 µM. Moreover, the TGI in assay [7], in assay [8], in assay [11] and in assay [12] was over 100 µM each time.
`CCNC(=O)c1cc(Cl)ccc1NC(=O)C12CC3CC(CC(C3)C1)C2`: the TGI in assay [1] was 88.9 µM; in [2], over 100 µM; in assay [3], over 100 µM; in assay [4], over 100 µM; in assay [10] it was over 100 µM; in [5], over 100 µM. Moreover, the TGI was over 100 µM in assay [6]; 86.7 µM in assay [7]; 81.9 µM in [8]; over 100 µM in [11]; over 100 µM in assay [12].
For `CSC1NC(c2ccccc2)=C(C#N)C(=O)N1C1OCC(OC(C)=O)C(OC(C)=O)C1OC(C)=O` (stereo unspecified), the TGI in assay [1], in assay [9], in assay [2], in assay [3], in assay [4] and in [10] was over 100 µM throughout. The TGI in assay [5], in assay [6], in assay [7], in assay [11] and in assay [12] was over 100 µM each time.
Regarding `Nc1ccc2[nH]c(-c3cccc(C(F)(F)F)c3)cc(=O)c2c1`, the GI50 was 43.6 µM in assay [1] and 52 µM in assay [2]. In addition, the TGI in assay [1], in assay [9], in assay [2], in assay [3], in assay [4] and in [10] was over 100 µM in each case. Further, the TGI in [5], in [6], in assay [7], in assay [11] and in assay [12] was over 100 µM each time.
Consider `O=c1c2ccccc2[nH]n1Cc1ccccc1`, for which the TGI in assay [1], in [9], in assay [2], in assay [3], in assay [4] and in assay [5] was over 100 µM each time. The TGI in [6], in assay [7], in [8], in assay [11] and in assay [12] was over 100 µM in each case.
For `COc1cc(CSc2ccc(O)cc2)cc(OC)c1OC`, the TGI in assay [1], in assay [2], in assay [3], in [4], in [10] and in [5] was over 100 µM in each case. Moreover, the TGI in assay [6] is over 100 µM; in assay [7] it was 66.1 µM; in assay [8], 67 µM; in assay [11], over 100 µM; in [12] it was over 100 µM.
Take `Cc1c(C)c(C)c(Cn2[nH]c(=O)n(C)c2=O)c(C)c1C`: the TGI in assay [1], in assay [9], in [2], in assay [3], in [4] and in [10] was over 100 µM each time. In addition, the TGI in [5], in assay [7], in assay [8], in assay [11] and in [12] was over 100 µM each time.
Take `CC(=O)c1[nH]c(NC(C)C)c(C(=S)Nc2ccccc2)c1N`: the TGI is over 100 µM in [1]; 75.5 µM in assay [9]; 64.4 µM in assay [2]; over 100 µM in assay [3]; over 100 µM in assay [4]; 89.2 µM in assay [10]. The TGI in [5] is over 100 µM; in assay [6] it was over 100 µM; in assay [7], 27.9 µM; in assay [8], 33 µM; in assay [11] it was over 100 µM.
Regarding `CCOC(=O)c1nc2ccc(C(F)(F)F)cc2nc1Nc1cc(OC)c(OC)c(OC)c1`, the TGI in assay [1], in assay [9], in [2], in [3], in [4] and in assay [10] was over 100 µM each time. Further, the TGI in assay [5], in [6], in assay [7] and in assay [11] was over 100 µM throughout.
Regarding `OC1c2ccccc2CCC1CN1CCN(CCOC(c2ccc(F)cc2)c2ccc(F)cc2)CC1` (stereo unspecified), the TGI in assay [1] was 61.4 µM; in assay [9], 18.9 µM; in assay [2], 20.8 µM; in [3], 61.9 µM; in assay [4] it was over 100 µM; in assay [10], 32.4 µM. The TGI in assay [5] turned out to be 32.2 µM; in assay [7], 64.4 µM; in [8], 36.3 µM; in [11] it was 42.4 µM; in [12], 28.3 µM.
In the case of `CC(=O)Nc1ccc2nc(-c3ccccn3)c(-c3ccccn3)nc2c1`, the TGI in assay [1], in assay [9], in assay [3], in [4], in assay [10] and in assay [6] was over 100 µM throughout. In addition, the TGI in assay [7], in assay [8], in assay [11] and in [12] was over 100 µM in each case.
For `CCOP(=O)(OCC)/C(C#N)=C/c1cccn1C(C)C`, the TGI in [1], in [9], in assay [2], in assay [3], in assay [4] and in assay [10] was over 100 µM each time. Also, the TGI in [5], in assay [6], in assay [8], in assay [11] and in assay [12] was over 100 µM throughout.
As for `COC1CCON1C(=O)c1ccccc1` (stereo unspecified), the TGI in [1], in [9], in [2], in assay [3], in [10] and in [5] was over 10 µM each time. Moreover, the TGI in [6], in [7], in assay [8] and in assay [11] was over 10 µM each time.
As for `CCOC(=O)CC(c1ccccc1)C(C)(C(=O)OCC)C(=O)OCC` (stereo unspecified), the TGI in assay [1], in assay [9], in [2], in [3], in [4] and in [10] was over 100 µM in each case. In addition, the TGI in [5], in [6], in [8], in [11] and in assay [12] was over 100 µM each time.
Turning to `C1CSCCSCCCSC2CCCCC2SC1` (stereo unspecified), the TGI in assay [1], in [9], in assay [2], in assay [3], in assay [4] and in [5] was over 100 µM in each case. For the same molecule, the TGI in assay [6], in assay [7], in [11] and in assay [12] was over 100 µM each time.
On to `COC(=O)c1c(C(=O)OC)c2ccccn2c1-c1cc(OC)c(Br)c(=O)o1`, for which the TGI in assay [1], in assay [9], in assay [2], in assay [3], in assay [4] and in assay [10] was over 100 µM throughout. In addition, the TGI in assay [5], in [6], in [7], in assay [8] and in assay [11] was over 100 µM each time.
As for `COc1ccc(OC)c(NCC(=O)Nn2cnc3ccc(S(=O)(=O)Nc4cc(OC)ccc4OC)cc3c2=O)c1`, the TGI in assay [1], in [9], in assay [2], in [3], in [4] and in assay [10] was over 100 µM throughout. For the same molecule, the TGI in [5], in assay [6], in [8], in [11] and in assay [12] was over 100 µM each time.
For `COCCN(CCNC(=O)c1cccc2c(N)c3cccc(C)c3nc12)CCOC`, the TGI in assay [1] came out at 9.64 µM; in assay [9], 1.72 µM; in [3], 7.25 µM; in [4] it was 6.93 µM; in assay [10], 1.96 µM; in assay [5], 3.53 µM. In addition, the TGI is 15.6 µM in assay [6]; 5.91 µM in [7]; 18.7 µM in assay [8]; 16.6 µM in assay [11]; over 63.6 µM in assay [12].
As for `S=C(NCCc1ccccn1)N/N=C/c1ccccn1`, the TGI was over 100 µM in assay [1]; over 100 µM in assay [9]; under 0.01 µM in [2]; 0.634 µM in [3]; over 100 µM in assay [4]; over 56.5 µM in assay [10]. In addition, the TGI in [6] is over 100 µM; in assay [7], 0.186 µM; in [8], 9.9 µM; in [11], over 100 µM; in [12], over 100 µM.
For the molecule `CC(=O)Oc1cc(S(=O)(=O)Nc2n[nH]c(Nc3ccc(C)cc3)n2)c(S)cc1Cl`, the TGI in [1], in assay [2], in [3], in assay [4], in assay [10] and in assay [5] was over 100 µM each time. Also, the TGI in assay [6], in assay [7], in assay [8], in assay [11] and in [12] was over 100 µM each time.
On to `COc1cc(-c2nc3ccc(N4CCN(C)CC4)cc3[nH]2)c(OC)c2[nH]c(COC(C)=O)nc12`, for which the TGI in assay [1] was 95.5 µM; in [2], over 100 µM; in assay [3], over 100 µM; in [4] it was over 100 µM; in assay [10], 63.8 µM; in assay [5], over 100 µM. Moreover, the TGI in assay [6], in assay [7], in assay [8], in assay [11] and in [12] was over 100 µM throughout.
